{"source": "paper PMC3110009", "about": "(ACS medicinal chemistry letters, 2011)", "key": {"[1]": {"target": "dopamine D3 receptor (human D3 clone) (Homo sapiens, UniProt P35462)", "sequence (P35462 whole entry)": "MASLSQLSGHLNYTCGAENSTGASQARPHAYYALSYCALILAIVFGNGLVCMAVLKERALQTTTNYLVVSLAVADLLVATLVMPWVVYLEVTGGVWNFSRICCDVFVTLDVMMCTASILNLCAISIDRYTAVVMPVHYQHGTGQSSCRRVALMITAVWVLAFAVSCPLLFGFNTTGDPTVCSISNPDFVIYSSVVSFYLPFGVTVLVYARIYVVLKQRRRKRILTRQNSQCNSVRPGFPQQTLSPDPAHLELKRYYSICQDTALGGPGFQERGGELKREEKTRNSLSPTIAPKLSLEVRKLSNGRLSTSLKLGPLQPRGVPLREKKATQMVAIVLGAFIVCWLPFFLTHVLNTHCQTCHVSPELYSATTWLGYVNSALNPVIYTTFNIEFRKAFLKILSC", "test": "Competitive binding at human D3 clone, [3H]domperidone"}, "[2]": {"target": "dopamine D2 receptor (D2^high / D2^low) (Rattus norvegicus, UniProt P61169)", "sequence (P61169 1-415 isoform P61169-2)": "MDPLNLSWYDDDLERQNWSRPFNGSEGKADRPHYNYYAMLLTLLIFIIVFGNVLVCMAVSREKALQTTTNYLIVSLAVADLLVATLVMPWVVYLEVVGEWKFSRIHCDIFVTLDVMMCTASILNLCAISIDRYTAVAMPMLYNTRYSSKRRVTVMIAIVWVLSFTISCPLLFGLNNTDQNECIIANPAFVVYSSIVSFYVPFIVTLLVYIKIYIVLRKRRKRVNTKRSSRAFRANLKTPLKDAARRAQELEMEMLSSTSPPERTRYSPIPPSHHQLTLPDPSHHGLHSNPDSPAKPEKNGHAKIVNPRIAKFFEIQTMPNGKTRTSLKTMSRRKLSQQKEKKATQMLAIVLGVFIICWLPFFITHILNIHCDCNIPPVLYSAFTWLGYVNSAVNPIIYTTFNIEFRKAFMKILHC", "assay_type": "binding"}}, "data": [{"smiles": "CN1CCc2cc(OCCCF)cc3c2[C@H]1Cc1ccc(O)c(O)c1-3", "note": "[Compound 8e]", "values": [{"measurement": "Ki D3^high", "setting": "[1]; high affinity state of D3", "value": "did not exhibit any D3^high affinity"}]}, {"smiles": "CCN1CCc2cc(OCCCF)cc3c2[C@H]1Cc1ccc(O)c(O)c1-3", "note": "[Compound 8c, N-ethyl-2-fluoropropanoxy catechol-aporphine]", "values": [{"measurement": "fold increase in D2^high affinity", "setting": "[2]; in comparison to 8a", "value": "~4", "unit": "fold"}]}, {"smiles": "CCN1CCc2cc(OCCF)cc3c2[C@H]1Cc1ccc(O)c(O)c1-3", "note": "[Compound 8d]", "values": [{"measurement": "fold improvement in D2^high binding affinity", "setting": "[2]; 2-fluoroethoxy analog versus N-ethyl 2-fluoropropanoxy analog 8c", "value": "more than 2 fold"}]}, {"smiles": "CN1CCc2cc(OCCF)cc3c2[C@H]1Cc1ccc(O)c(O)c1-3", "note": "[Compound 8f]", "values": [{"measurement": "Ki D3 [3H]domperidone", "setting": "[1]; human D3 clone, SD", "value": "no appreciable affinity to D3"}]}]}
